In brackets after ≈: the same amount, converted by molar mass. Like-named read-outs stand apart in the source and are kept apart here.
Assays:
[1] = molecular target: T1, E. coli topoisomerase IV (Escherichia coli, UniProt P20083); set-up: method as in PMID 33017402, PMID 33524686, PMID 36634346, PMID 36877255; details: parent inhibitors; cited from earlier work
[2] = test system: P. aeruginosa ATCC 27853; assay: Broth microdilution MIC, P. aeruginosa ATCC 27853; assay type: cell-based; details: Pseudomonas aeruginosa, ATCC27853, P. aeruginosa ATCC 27853, read-out: Minimum inhibitory concentrations
From the text: (§1) Cefiderocol, a siderophore cephalosporin, was used as a positive control. Compound 18a was only tested on E. coli in both media conditions. Iron-depleted conditions were used to determine the effects of the attached siderophore mimics on antibacterial activities, since bacteria under low iron conditions produce and secrete siderophores to take up iron from the extracellular environment.[32] […] We have previously observed that our benzothiazole GyrB/ParE inhibitors are strongly effluxed from the G− bacterial cells and that this effect is especially pronounced in E. coli.[14] Therefore, compounds 10, 12, and 18b were also tested against E. coli JW5503, which is a tolC deletion mutant strain with a defective efflux pump.
(§2) The single-gene knock-out mutant strain of E. coli JW5503 (tolC knock-out) was obtained from the E. coli collection of the National BioResource Project at the National Institute of Genetics (Japan).[45] To determine the antibacterial activities, broth microdilution assays were carried out in 96-well plates following the Clinical and Laboratory Standards Institute guidelines.[46] Compounds were prepared as 100% DMSO stock solutions. The final concentration of DMSO was 1% and had no effect on the growth of bacteria. Preliminary screening was performed at 50 μM, and growth inhibition was measured after 24 h incubation at 37 °C. For compounds displaying >90% growth inhibition in the preliminary assay, MIC values were determined in dose–response assays (from at least two independent experiments, each with three replicates per concentration). Cation-adjusted Mueller-Hinton broth (CAMHB, BD) was used in all assays. CAMHB was prepared according to manufacturer's instructions and iron-depleted CAMHB (ID-CAMHB) according to CLSI guidelines. ID-CAMHB was used in order to mimic the conditions faced by bacteria during human infections, and induces the ferric iron transport. ID-CAMHB was prepared by adding 100 g of Chelex 100 resin (Bio-Rad) to 1 L of autoclaved CAMHB and stirred for 2 h at room temperature, in order to remove cations from the medium. Then, broth was filtered using a 0.2 μm filter to remove the resin and pH adjusted to 7.3 using 5 M hydrochloric acid. ID-CAMHB was then supplemented with calcium (CaCl2), magnesium (MgCl2) and zinc (ZnSO4) to final concentrations of 22.5 μg mL^−1, 11.25 μg mL^−1 and 0.56 μg mL^−1, respectively, and filtered again. To evaluate the effect of iron concentration on antibacterial effect of compounds, an appropriate amount of iron(III) chloride was added to ID-CAMHB, and this supplemented media was used as control CAMHB. The iron concentration in CAMHB and ID-CAMHB were approximately 0.2 mg L^−1 and ≤0.03 mg L^−1, respectively. Cefiderocol, a positive control, MICs were determined against E. coli, P. aeruginosa and A. baumannii, and used as positive control in the assays. Cefiderocol was purchased from MedChemExpress Europe.

[3] = test system: A. baumannii ATCC 19606; assay: Broth microdilution MIC, A. baumannii ATCC 19606; assay type: cell-based; details: Acinetobacter baumannii, ATCC19606, A. baumannii ATCC 19606, read-out: Minimum inhibitory concentrations
From the text: as §1, §2

[4] = test system: E. coli ATCC 25922; assay: Broth microdilution MIC, E. coli ATCC 25922; assay type: cell-based, Escherichia coli
From the text: as §1, §2

[5] = test system: E. coli JW5503; assay: Broth microdilution MIC, efflux-defective E. coli JW5503 (tolC deletion mutant); assay type: cell-based, Escherichia coli; details: for MIC: Escherichia coli; for improvement of antibacterial activity in iron-depleted medium: iron-depleted vs iron-supplemented medium, E. coli JW5503
From the text: as §1, §2

[6] = molecular target: T1, E. coli topoisomerase IV; assay: E. coli topoisomerase IV relaxation assay; assay type: biochemical; details: average of three independent measurements
From the text: (§3) All final compounds were first tested for their inhibitory activity in the E. coli DNA gyrase supercoiling assay and the E. coli topoisomerase IV relaxation assay (Table 1). […] These observations were confirmed with compounds 18a and 18b, which carried the siderophore mimic at position 4. […] With compounds 18a and 18b, we confirmed our hypothesis that it is possible to maintain potent enzyme inhibition after introduction of the siderophore mimic into the structure of the GyrB/ParE inhibitor.
(§4) The assays for determination of IC50 against E. coli DNA gyrase and topoisomerase IV were performed according to previously reported procedures.[23] IC50 values were determined with seven concentrations of the inhibitors. […] IC50 values were determined in three independent measurements, and their average value is given as a final result.

[7] = test system: wild type G− E. coli, P. aeruginosa and A. baumannii; assay: Antibacterial activity against wild type G− bacteria (screen at 50 μM); assay type: cell-based
From the text: as §1
as §2, with “The iron concentration in CAMHB and ID-CAMHB were approximately 0.2 mg L^−1 and ≤0.03 mg L^−1, respectively.” left out, “Cefiderocol was purchased from MedChemExpress Europe.” left out

[8] = molecular target: E. coli DNA gyrase (Escherichia coli, UniProt P0AES6); assay: E. coli DNA gyrase supercoiling assay; assay type: biochemical; details: for IC50: supercoiling assay, average of three independent measurements
From the text: as §3, §4

[9] = E. coli ATCC 25922, +Fe: CAMHB + Fe, read-out: Minimum inhibitory concentrations
[10] = Escherichia coli, ATCC25922, read-out: Minimum inhibitory concentrations
[11] = JW5503, read-out: Minimum inhibitory concentrations, E. coli JW5503, +Fe: CAMHB + Fe
[12] = JW5503, read-out: Minimum inhibitory concentrations, E. coli JW5503, −Fe: ID-CAMHB

T1 sequence (P0AFI2 whole entry): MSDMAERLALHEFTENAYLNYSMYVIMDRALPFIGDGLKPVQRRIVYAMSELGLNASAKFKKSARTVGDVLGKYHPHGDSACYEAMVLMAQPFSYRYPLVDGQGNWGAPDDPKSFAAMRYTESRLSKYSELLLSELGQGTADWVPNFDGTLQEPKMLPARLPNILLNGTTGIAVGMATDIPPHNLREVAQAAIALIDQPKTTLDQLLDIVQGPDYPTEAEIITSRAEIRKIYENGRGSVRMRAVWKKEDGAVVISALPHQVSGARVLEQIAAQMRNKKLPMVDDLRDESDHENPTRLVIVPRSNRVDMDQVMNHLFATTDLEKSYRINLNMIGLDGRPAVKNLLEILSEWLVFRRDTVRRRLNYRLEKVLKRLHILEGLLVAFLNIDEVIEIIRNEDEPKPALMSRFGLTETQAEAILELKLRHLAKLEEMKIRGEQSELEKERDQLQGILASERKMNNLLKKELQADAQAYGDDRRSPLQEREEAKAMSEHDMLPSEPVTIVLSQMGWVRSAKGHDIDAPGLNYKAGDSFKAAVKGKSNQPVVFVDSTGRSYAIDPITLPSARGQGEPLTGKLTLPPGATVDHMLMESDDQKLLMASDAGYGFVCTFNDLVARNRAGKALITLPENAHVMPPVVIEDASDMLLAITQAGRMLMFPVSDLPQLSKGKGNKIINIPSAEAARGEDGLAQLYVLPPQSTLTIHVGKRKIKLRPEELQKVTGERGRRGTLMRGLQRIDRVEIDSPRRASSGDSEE
T1 sequence (P20083 whole entry): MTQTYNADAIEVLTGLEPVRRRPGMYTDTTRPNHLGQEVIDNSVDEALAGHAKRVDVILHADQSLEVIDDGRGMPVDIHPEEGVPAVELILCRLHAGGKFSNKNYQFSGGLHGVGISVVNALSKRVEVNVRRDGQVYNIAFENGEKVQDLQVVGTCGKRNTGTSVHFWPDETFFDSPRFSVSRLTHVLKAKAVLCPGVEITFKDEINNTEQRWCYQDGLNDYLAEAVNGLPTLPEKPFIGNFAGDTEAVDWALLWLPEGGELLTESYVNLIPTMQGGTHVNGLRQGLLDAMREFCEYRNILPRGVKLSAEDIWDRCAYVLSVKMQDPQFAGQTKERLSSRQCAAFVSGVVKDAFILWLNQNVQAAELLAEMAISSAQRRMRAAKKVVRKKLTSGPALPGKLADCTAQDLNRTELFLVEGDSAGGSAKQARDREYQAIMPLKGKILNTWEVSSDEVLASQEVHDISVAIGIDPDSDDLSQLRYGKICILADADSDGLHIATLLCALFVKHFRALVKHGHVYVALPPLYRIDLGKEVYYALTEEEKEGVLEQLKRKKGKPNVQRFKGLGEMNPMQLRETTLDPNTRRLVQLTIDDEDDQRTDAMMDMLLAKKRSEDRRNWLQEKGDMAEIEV

Row | SMILES | IC50 [1] [nM] | MIC ([2]; +Fe: CAMHB + Fe) [µM] | MIC ([2]; −Fe: ID-CAMHB) [µM] | MIC ([3]; +Fe: CAMHB + Fe) [µM] | MIC ([3]; −Fe: ID-CAMHB) [µM] | MIC [4, 9] [µM] | MIC [4, 10] [µM] | MIC [5, 11] [µM] | MIC [5, 12] [µM] | improvement of antibacterial activity in iron-depleted medium [5] | IC50 [6] [nM] | MIC [7] [µM] | melting point [°C] | IC50 E. coli DNA gyrase (range in words) [8] | IC50 [8] [nM] | MIC ([7]; iron-supplemented and iron-depleted media, indicated by weak activity at 50 μM, read-out: MIC) [µM] | MIC ([4]; Escherichia coli, ATCC25922, E. coli ATCC 25922, −Fe: iron depleted CAMHB (ID-CAMHB), read-out: Minimum inhibitory concentrations) [µM] | MIC ([5]; JW5503, E. coli JW5503, iron-depleted conditions) [µg/mL] | MIC ([5]; JW5503, E. coli JW5503, iron-supplemented conditions) [µg/mL]
1 | Cc1[nH]c(C(=O)Nc2nc3ccc(C(=O)O)cc3s2)c(Cl)c1Cl [A] | 500 ± 280 |  |  |  |  |  |  |  |  |  |  |  |  |  |  |  |  |  | 
2 | CC(C)(O/N=C(\C(=O)N[C@@H]1C(=O)N2C(C(=O)[O-])=C(C[N+]3(CCNC(=O)c4ccc(O)c(O)c4Cl)CCCC3)CS[C@H]12)c1csc(N)n1)C(=O)O [Cefiderocol, reference compound] |  | 1 | 0.25 (≈ 0.188 µg/mL) | 2 | 0.25 (≈ 0.188 µg/mL) | 0.25 | 0.25 (≈ 0.188 µg/mL) | 0.125 | 0.0625 | twofold |  |  |  |  |  |  |  |  | 
3 | O=C(NCc1cc(=O)c(O)co1)c1ccc2nc(NC(=O)c3cc(Br)c(Br)[nH]3)sc2c1 [Compound 10, 2-(4,5-Dibromo-1H-pyrrole-2-carboxamido)-N-((5-hydroxy-4-oxo-4H-pyran-2-yl)methyl)benzo[d]thiazole-6-carboxamide] |  | > 50 | > 50 | > 50 | > 50 | >50 | > 50 | > 50 | > 50 |  | > 10000 | > 50 | > 300 | low micromolar range | 1420 ± 180 |  |  |  | 
4 | O=C(NCc1cc(=O)c(O)c[nH]1)c1ccc2nc(NC(=O)c3cc(Br)c(Br)[nH]3)sc2c1 [Compound 12, 2-(4,5-Dibromo-1H-pyrrole-2-carboxamido)-N-((5-hydroxy-4-oxo-1,4-dihydropyridin-2-yl)methyl)benzo[d]thiazole-6-carboxamide] |  | > 50 | > 50 | > 50 | > 50 | >50 | > 50 | > 50 | > 50 |  | > 10000 | > 50 | > 300 | low micromolar range | 1700 ± 360 |  |  |  | 
5 | O=C(O)c1cc(OCc2cc(=O)c(O)c[nH]2)c2nc(NC(=O)c3cc(Br)c(Br)[nH]3)sc2c1 [Compound 18a, 2-(4,5-Dibromo-1H-pyrrole-2-carboxamido)-4-((5-hydroxy-4-oxo-1,4-dihydropyridin-2-yl)methoxy)benzo[d]thiazole-6-carboxylic acid] |  |  |  |  |  | >50 |  |  |  |  | 1280 ± 820 |  |  | low nanomolar range | 12 ± 5 | > 50 | > 50 |  | 
6 | Cc1[nH]c(C(=O)Nc2nc3c(OCc4cc(=O)c(O)c[nH]4)cc(C(=O)O)cc3s2)c(Cl)c1Cl [Compound 18b, 2-(3,4-Dichloro-5-methyl-1H-pyrrole-2-carboxamido)-4-((5-hydroxy-4-oxo-1,4-dihydropyridin-2-yl)methoxy)benzo[d]thiazole-6-carboxylic acid] |  | > 50 | > 50 | > 50 | > 50 | >50 | > 50 | 25 | 12.5 | twofold | 430 ± 20 | > 50 | > 300 | low nanomolar range | 22 ± 6 |  |  | 6.37 | 12.7
